Data reported in BindingDB's records for doi:10.1016/j.bmcl.2004.05.088 (Eli Lilly, 2004).
pIC50: −log10 of the molar value. Where a name gives a salt, the structure may show the parent alone.

Experiments:
Assay in all cases: CDK Kinase Inhibition Assay
[1] = target: cAMP-dependent protein kinase catalytic subunit alpha (Bos taurus, UniProt P00517); details: 25 °C
[2] = target: Cyclin-dependent kinase 4/G1/S-specific cyclin-D1 (Homo sapiens, UniProt P11802); details: pH 7; 22 °C
Method: (§1) In vitro CDK assay using purified enzyme, was incubated at room temperature with substrate, and test compounds in the presence of ATP/[gamma-33P]ATP. 33P incorporation was measured with a Top Count (Packard). IC50 is the inhibitor concentration which inhibits 50% of kinase activity that catalyzes the transfer of the terminal phosphate from 33P labeled ATP to the substrate.

[3] = target: Cyclin-dependent kinase 2/G1/S-specific cyclin-E1 (Homo sapiens, UniProt P24941); details: 25 °C
Method: as §1

Cyclin-dependent kinase 4/G1/S-specific cyclin-D1, sequence (P11802 whole entry): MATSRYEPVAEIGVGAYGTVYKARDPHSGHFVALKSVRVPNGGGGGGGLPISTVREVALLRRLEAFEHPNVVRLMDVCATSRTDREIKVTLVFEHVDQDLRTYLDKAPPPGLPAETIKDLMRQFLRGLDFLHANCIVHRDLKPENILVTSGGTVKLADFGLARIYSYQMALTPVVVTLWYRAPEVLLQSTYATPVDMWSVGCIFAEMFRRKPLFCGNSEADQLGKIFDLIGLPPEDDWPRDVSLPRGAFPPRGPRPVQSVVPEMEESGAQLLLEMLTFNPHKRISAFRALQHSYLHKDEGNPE
Cyclin-dependent kinase 4/G1/S-specific cyclin-D1, sequence (P24385 whole entry, further chain): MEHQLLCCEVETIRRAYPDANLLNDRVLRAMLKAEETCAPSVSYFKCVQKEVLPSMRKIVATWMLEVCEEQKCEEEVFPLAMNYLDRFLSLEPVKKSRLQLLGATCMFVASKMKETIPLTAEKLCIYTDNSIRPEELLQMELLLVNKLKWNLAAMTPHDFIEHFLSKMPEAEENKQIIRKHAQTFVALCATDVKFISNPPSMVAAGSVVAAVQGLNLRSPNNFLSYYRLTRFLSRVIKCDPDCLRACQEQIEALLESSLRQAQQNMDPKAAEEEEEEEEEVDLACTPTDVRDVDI

| pIC50 [1] | pIC50 [2] | pIC50 [3] | SMILES |
| --- | --- | --- | --- |
| < 5.70 | 7.16 |  | O=C1NC(=O)c2c1c1c3ccc(C(F)(F)F)cc3[nH]c1c1c2c2cccc3c2n1CCNC3 [7-(trifluoromethyl)-1,4,14,24-tetraazaheptacyclo[16.8.1.0^{2,17}.0^{3,11}.0^{5,10}.0^{12,16}.0^{22,27}]heptacosa-2(17),3(11),5(10),6,8,12(16),18(27),19,21-nonaene-13,15-dione hydrochloride] |
|  | 7.47 |  | O=C1NC(=O)c2c1c1c3cc(F)ccc3[nH]c1c1c2c2cccc3c2n1CCNC3 [8-fluoro-1,4,14,24-tetraazaheptacyclo[16.8.1.0^{2,17}.0^{3,11}.0^{5,10}.0^{12,16}.0^{22,27}]heptacosa-2(17),3(11),5(10),6,8,12(16),18(27),19,21-nonaene-13,15-dione hydrochloride] |
|  |  | 7.80 | O=C1NC(=O)c2c1c1c3ccc(F)cc3[nH]c1c1c2c2cccc3c2n1CCNC3 [7-fluoro-1,4,14,24-tetraazaheptacyclo[16.8.1.0^{2,17}.0^{3,11}.0^{5,10}.0^{12,16}.0^{22,27}]heptacosa-2(17),3(11),5(10),6,8,12(16),18(27),19,21-nonaene-13,15-dione hydrochloride] |
|  | 7.57 | 7.42 | O=C1NC(=O)c2c1c1c3ccccc3[nH]c1c1c2c2cccc3c2n1CCNC3 [1,4,14,24-tetraazaheptacyclo[16.8.1.0^{2,17}.0^{3,11}.0^{5,10}.0^{12,16}.0^{22,27}]heptacosa-2(17),3(11),5(10),6,8,12(16),18(27),19,21-nonaene-13,15-dione hydrochloride] |
| < 5.70 | 7.00 |  | NCC(=O)N1CCn2c3c(cccc3c3c4c(c5c6ccccc6[nH]c5c32)C(=O)NC4=O)C1 [24-(2-aminoacetyl)-1,4,14,24-tetraazaheptacyclo[16.8.1.0^{2,17}.0^{3,11}.0^{5,10}.0^{12,16}.0^{22,27}]heptacosa-2(17),3(11),5(10),6,8,12(16),18(27),19,21-nonaene-13,15-dione hydrochloride] |
| < 5.70 | 7.28 |  | CS(=O)(=O)N1CCn2c3c(cccc3c3c4c(c5c6ccccc6[nH]c5c32)C(=O)NC4=O)C1 [24-methanesulfonyl-1,4,14,24-tetraazaheptacyclo[16.8.1.0^{2,17}.0^{3,11}.0^{5,10}.0^{12,16}.0^{22,27}]heptacosa-2(17),3(11),5(10),6,8,12(16),18(27),19,21-nonaene-13,15-dione] |
| < 5.70 | 6.96 |  | O=C1NC(=O)c2c1c1c3cc(F)c(F)cc3[nH]c1c1c2c2cccc3c2n1CCNC3 [7,8-difluoro-1,4,14,24-tetraazaheptacyclo[16.8.1.0^{2,17}.0^{3,11}.0^{5,10}.0^{12,16}.0^{22,27}]heptacosa-2(17),3(11),5(10),6,8,12(16),18(27),19,21-nonaene-13,15-dione hydrochloride] |
| < 5.70 | 6.92 |  | Cn1cnc(S(=O)(=O)N2CCn3c4c(cccc4c4c5c(c6c7ccccc7[nH]c6c43)C(=O)NC5=O)C2)c1 [24-[(1-methyl-1H-imidazole-4-)sulfonyl]-1,4,14,24-tetraazaheptacyclo[16.8.1.0^{2,17}.0^{3,11}.0^{5,10}.0^{12,16}.0^{22,27}]heptacosa-2(17),3(11),5(10),6,8,12(16),18(27),19,21-nonaene-13,15-dione] |
|  | 6.80 |  | O=C1NC(=O)c2c1c1c3ccccc3[nH]c1c1c2c2cccc3c2n1CCNCC3 [1,4,14,25-tetraazaheptacyclo[16.9.1.0^{2,17}.0^{3,11}.0^{5,10}.0^{12,16}.0^{22,28}]octacosa-2(17),3(11),5(10),6,8,12(16),18(28),19,21-nonaene-13,15-dione hydrochloride] |
|  | 7.36 |  | O=C1NC(=O)c2c1c1c3ccc(C(F)(F)F)c(CO)c3[nH]c1c1c2c2cccc3c2n1CCNC3 [6-(hydroxymethyl)-7-(trifluoromethyl)-1,4,14,24-tetraazaheptacyclo[16.8.1.0^{2,17}.0^{3,11}.0^{5,10}.0^{12,16}.0^{22,27}]heptacosa-2(17),3(11),5(10),6,8,12(16),18(27),19,21-nonaene-13,15-dione hydrochloride] |
| < 5.70 | 7.11 |  | CC(C)N1CCn2c3c(cccc3c3c4c(c5c6ccccc6[nH]c5c32)C(=O)NC4=O)C1 [24-(propan-2-yl)-1,4,14,24-tetraazaheptacyclo[16.8.1.0^{2,17}.0^{3,11}.0^{5,10}.0^{12,16}.0^{22,27}]heptacosa-2(17),3(11),5(10),6,8,12(16),18(27),19,21-nonaene-13,15-dione] |
